Consider 17 compounds from article PMC10664145, “Urinary Excretion of Mercapturic Acids of the Rodent Carcinogen Methyleugenol after a Single Meal of Basil Pesto: A Controlled Exposure Study in Humans” (Chemical Research in Toxicology, 2023).

Details of data set [1]: method as in PMID 22445790. Particulars: cited from earlier work.
Data set [2] has as its system DNA. The settings on record: cited from earlier work.
For another data set, the system named is SULT1A1. More on the design: method as in PMID 22337896. Particulars: cited from earlier work.
The conditions of data set [3]: range over 12 experimental settings; ME 100, 200 or 500 μM; calculated from published data, molar units; cited from earlier work.
For data set [4] the following is noted: range over five models (male and female Sprague–Dawley and Fischer 344 rats, pooled human); cited from earlier work.
The conditions of data set [5]: cited from earlier work; for urinary metabolite of ME, share of the dose / urinary metabolite of ME in urine treated with glucuronidase/sulfatase, share of the dose: rat urine 24 h after oral ME 200 mg/kg.
The next data set relates to human topoisomerase I. Further details: method as in PMID 26542539. The settings on record: cited from earlier work.
On the set-up of data set [6]: method as in PMID 22610610, PMID 22445790. The settings on record: calculated from published data; cited from earlier work.
A short description of data set [7]: Controlled exposure study in humans: urinary excretion of E-3′-MEMA after a meal with 100 g basil pesto (1.7 mg ME), isotope-dilution LC–MS/MS. Type of data set: in vivo, human. As for the experimental part:
Based on the findings of the pilot investigation, a more comprehensive (“main”) exposure study was performed. The study was conducted according to the guidelines of the Declaration of Helsinki and was approved by the ethics committee of the University of Potsdam under application number 4/2019. It was carried out at the Institute of Nutritional Science (University of Potsdam), where 12 healthy volunteers (six men and six women) with conventional nutrition habits were recruited. All participants gave written informed consent. The mean age of the test group was 31.6 ± 4.6 years (range: 25–42 years), and the mean body weight was 76.4 ± 10.0 kg (range: 61–94 kg). To guarantee that urinary excretion of MEMA was solely attributed to the consumption of the basil pesto served, all volunteers were asked to avoid ME-containing food 2 days before and after the consumption of the study meal. Therefore, they received an information sheet specifying potential ME sources. After overnight fasting, the participants consumed a meal comprising 100 g of self-made pesto containing 30 g of basil (equal to 1.7 mg of ME; recipe see Table S2) and 200 g of pasta. No further restrictions were exerted. To ensure proper urine sampling, the volunteers were encouraged to drink beverages as they preferred. Urine was collected quantitatively in capped polyethylene containers prior to the controlled exposure and during the following intervals: 0–1, 1–2, 2–3, 3–4, 4–5, 5–6, 6–8, 8–10, 10–12, 12–24, 24–36, and 36–48 h. After the volumes were measured, the urine was aliquoted in two 15 mL reaction tubes per time interval and stored at −20 °C until analysis.
“System 2” was configured as follows: an HPLC 1100 (Agilent Technologies) was connected to a QTrap6500 triple quadrupole-hybrid ion trap mass spectrometer (Sciex, Darmstadt, Germany) equipped with an electrospray ionization source operating in negative mode. The chromatographic separation of the analytes was performed by ion pair chromatography on a Nucleoshell RP 18plus column (2.0 × 150 mm, 2.7 μm; Macherey-Nagel). The eluents were water containing 10 mM tributylamine and 10 mM acetic acid (eluent A) and acetonitrile (eluent B). The flow rate of the gradient (0 → 1 min: 2% eluent B; 1 → 8 min: 2 → 15% eluent B; 8 → 17.5 min: 15 → 35% eluent B; 17.5 → 18 min: 35 → 100% eluent B; 18 → 20 min: 100% eluent B; 20 → 20.1 min: 100 → 2% eluent B; 20.1 → 23 min: 2% eluent B) was 0.5 mL/min. […] The MRM mode was employed for quantitative analysis with the declustering potential and the entrance potential at −30 and −10 V, respectively. For the quantifier mass transitions of E-3′-MEMA (m/z 338.1 → 209.1) and d6-E-3′-MEMA (m/z 344.1 → 215.1), a collision energy of −20 V and a cell exit potential of −5 V were used. […]

The conditions of data set [8]: rat, in vivo. The protocol:
The metabolism of ME and its isomer, MIE, was also studied in rats in vivo.[27] Urine collected over a period of 24 h after oral administration of ME (200 mg/kg) contained a total of ten metabolites (each accounting for ≥1% of the dose); together, they represented 95% of the dose. Among the microsomal metabolites described in the preceding sections, only 6-hydroxy-ME was detected in native urine (2% of the dose). In human liver microsomes, it contributed 0–3.4% to the metabolism of ME, less than that in liver microsomes from other species [calculated from data published by Cartus et al.[11] and Al-Subeihi et al.[26]]. For this reason, and as 6-hydroxy-ME is not involved in bioactivation, it is not suited as a biomarker. Eugenol and chavibetol were found in urine treated with glucuronidase/sulfatase at levels of 7 and 4% of the dose, respectively. Obviously, these metabolites are not suited as biomarkers for exposure to ME, as they may also be found after exposure to eugenol and chavibetol. […] Although in this study, 95% of the dose of ME was recovered as metabolites in urine, metabolites were additionally detected in bile. […] Glutathione (GSH) conjugates and other metabolites of the mercapturic acid pathways were not detected in that study; however, the method used (extraction of the acidified urine or bile with ether followed by gas chromatography) was not suitable for their detection.

In another data set the test system is human CYPs. The settings on record: cited from earlier work.
The conditions of data set [9]: human, in vivo; cited from earlier work.
Data set [10] concerns primary cultures of rat hepatocytes. Particulars: cited from earlier work.
Data set [11] relates to DNA. Particulars: cited from earlier work. The source holds these as a separate data set.
For data set [12] the following is noted: n = 1; cited from earlier work.

Several values for one entry are separate records, joined by “and”; a condition that tells them apart may be missing. Equal values may be shown once.

Regarding `C=CC(O)c1ccc(OC)c(OC)c1` (stereo not drawn) [1′-hydroxy-ME], in data set [1], the “catalytic efficiency of glucuronidation, factor lower in human than in male rat liver microsomes” value was 125 times. In addition, in the data set with DNA [2], the “DNA adduct levels in mice carrying a human SULT1A1–1A2 transgene compared to wild-type mice” value is given as “nine times higher”; the “potency in induction of hepatomas and formation of DNA adducts in mouse liver, compared with ME” value is reported as “more potent than ME”. Further, the “efficiency of human SULT1A1 in activation to a mutagen relative to its mouse orthologue” value in the data set with SULT1A1 is recorded as “about 3 times”. Further, the “contribution of the metabolite to the metabolism of ME (sum of all metabolites)” value (“contribution … (sum of all metabolites)” below) in data set [3] is on record as 36.4–69.4%. For the same compound, in data set [4], the “contribution of the metabolite to ME metabolism calculated from Vmax values” is reported as 36.2–50.1%.
As to `COc1ccc(CC(O)C(=O)O)cc1OC` (stereo not drawn) [2-hydroxy-3-(3,4-dimethoxyphenyl)propionic acid], the “urinary metabolite of ME, share of the dose” value in [5] is 20 % of the dose.
Regarding `COc1ccc(CC(O)CO)cc1OC` (stereo not drawn) [2′,3′-dihydroxy-2′,3′-dihydro-ME], in data set [4], the “contribution of the metabolite to ME metabolism calculated from Vmax values” is listed as 21.8–44.0%.
Turning to `Cc1ccc(CC(=O)O)cc1C` [3,4-Dimethylphenylacetic acid], the “urinary metabolite of ME, share of the dose” value in [5] was 3 % of the dose.
For the compound `COc1ccc(C(=O)O)cc1OC` [3,4-dimethoxybenzoic acid], the “urinary metabolite of ME, share of the dose” value in [5] is 2 % of the dose.
Turning to `COc1ccc(C(=O)NCC(=O)O)cc1OC` [3,4-dimethoxybenzoylglycine], in data set [5], the “urinary metabolite of ME, share of the dose” value is 30 % of the dose.
Consider `COc1ccc(C=CC(=O)NCC(=O)O)cc1OC` [3,4-dimethoxycinnamoylglycine], for which the “urinary metabolite of ME, share of the dose” value in data set [5] was 24 % of the dose.
Take `COc1ccc(C(O)CC(=O)O)cc1OC` (stereo not drawn) [3-hydroxy-3-(3,4-dimethoxyphenyl)propionic acid]: the “urinary metabolite of ME, share of the dose” value in data set [5] was 2 % of the dose.
Consider `COc1ccc(C=CCO)cc1OC` [3′-hydroxy-MIE, 3′-hydroxymethylisoeugenol], for which, in [5] (rats, ME 200 mg/kg), the “share of the dose excreted as urinary metabolites that appeared to be formed via 3′-hydroxy-MIE” value is recorded as 62 % of the dose and the “share of the urinary metabolites that appeared to be formed via 3′-hydroxy-MIE” value is on record as 65%. For the same compound, the “contribution … (sum of all metabolites)” value in [3] is 10.4–42.4%. Besides, in [4], the “contribution of the metabolite to ME metabolism calculated from Vmax values” was 10.3–12.9%.
Regarding `COc1ccc(/C=C/C=O)cc1OC` [3′-oxo-MIE], in the data set with human topoisomerase I, the “effect on human topoisomerase I activity in vitro” value is on record as “inhibit”. Further, in data set [3], the “contribution … (sum of all metabolites)” value is on record as 0–6.8%.
For `C=CCc1cc(OC)c(OC)cc1O` [6-hydroxy-ME], the “urinary metabolite of ME, share of the dose” value in [5] is 2 % of the dose. Also, in data set [6], the “contribution of 6-hydroxy-ME to the metabolism of ME in human liver microsomes” value is reported as 0–3.4%. In data set [3], the “contribution … (sum of all metabolites)” value is 0–27.4%. The “contribution of the metabolite to ME metabolism calculated from Vmax values” in [4] is listed as 3.9–4.7%.
Regarding `COc1ccc(C=CCSC[C@H](NC(C)=O)C(=O)O)cc1OC` [E-3′-MEMA, N-acetyl-S-[3′-(3,4-dimethoxyphenyl)allyl]-L-cysteine], the “total amount of E-3′-MEMA excreted, range among 12 participants” value in [7] (1.7 mg ME in basil pesto) is on record as 3–274 ng/person. For the same compound, the “interindividual variability of E-3′-MEMA excretion, factor between highest and lowest values” in [7] (12 participants) is around 80. Also, the “E-3′-MEMA ratio of ME intake” value in data set [7] (individual participant, urine 0–48 h after 100 g basil pesto containing 1.7 mg ME) is 33 ppm and 20 ppm and 85 ppm and 14 ppm and 1 ppm and 2 ppm and 4 ppm and 16 ppm and 6 ppm and 11 ppm. In [7] (individual participant, urine 0–48 h after 100 g basil pesto containing 1.7 mg ME, sum of all samples with concentration > LOD), the “E-3′-MEMA total urinary excretion” value was 105 ng and 63 ng and 274 ng and 44 ng and 3 ng and 6 ng and 12 ng and 51 ng and 18 ng and 36 ng and 20 ng and 52 ng.
`C=CCc1ccc(O)c(OC)c1` [Eugenol, eugenol]: the “urinary metabolite of ME in urine treated with glucuronidase/sulfatase, share of the dose” value in data set [5] is listed as 7 % of the dose.
With `C=CCc1ccc(OC)c(OC)c1` [ME, Methyleugenol], in data set [8], the “share of the dose of ME converted via 1′-sulfooxy-ME to 3′-hydroxy-MIE (suggested)” value is reported as 14.3–41.7%. Further, the “reduction of DNA adduct formation by ME in mouse liver by genetic knockout of SULT1A1” value in the data set with DNA [2] (mouse, in vivo) was 99%. Also, in the data set on human CYPs, the “contribution of 1′-hydroxylation to hepatic ME metabolism at low substrate concentration” value is given as 38.4% and the “contribution of 2′,3′-epoxidation to hepatic ME metabolism at low substrate concentration” value was 58.8%. Further, in data set [9], the “half-life of elimination of ME from serum” value is listed as “about 90 min” and the “time of peak serum levels of ME after the meal” value is 5 min. For the same compound, the “induction of UDS by ME in the presence of the SULT1 inhibitor pentachlorophenol” value in data set [10] is “fully suppressed”.
As to `COc1ccc(C=CCNc2nc3c(ncn3[C@H]3C[C@H](O)[C@@H](CO)O3)c(=O)[nH]2)cc1OC` [N^2-(methylisoeugenol-3′-yl)-2′-deoxyguanosine], the “human lung samples with DNA adducts present” value in the data set with DNA [11] was 10 out of 10. In addition, the “human liver samples with DNA adducts present” value with DNA [11] (surgical human liver samples) was 150 out of 151.
For `C=CCc1ccc(OC)c(O)c1` [chavibetol], the “urinary metabolite of ME in urine treated with glucuronidase/sulfatase, share of the dose” value in [5] is 4 % of the dose.
In the case of `COc1ccc(C=CCSC[C@H](NC(C)=O)C(=O)O)cc1` [mercapturic acid of estragole, N-acetyl-S-[3′-(4-methoxyphenyl)allyl]-L-Cys], the “urinary excretion of the mercapturic acid as share of intake” value in [12] is 13.2 ppm.
